Test results taken from patent US7632858B2 (priority 2002, dated 2009).

Key:
[1] = target: T1, AR (Rattus norvegicus, UniProt P15207)
T1 sequence (P15207 1-902): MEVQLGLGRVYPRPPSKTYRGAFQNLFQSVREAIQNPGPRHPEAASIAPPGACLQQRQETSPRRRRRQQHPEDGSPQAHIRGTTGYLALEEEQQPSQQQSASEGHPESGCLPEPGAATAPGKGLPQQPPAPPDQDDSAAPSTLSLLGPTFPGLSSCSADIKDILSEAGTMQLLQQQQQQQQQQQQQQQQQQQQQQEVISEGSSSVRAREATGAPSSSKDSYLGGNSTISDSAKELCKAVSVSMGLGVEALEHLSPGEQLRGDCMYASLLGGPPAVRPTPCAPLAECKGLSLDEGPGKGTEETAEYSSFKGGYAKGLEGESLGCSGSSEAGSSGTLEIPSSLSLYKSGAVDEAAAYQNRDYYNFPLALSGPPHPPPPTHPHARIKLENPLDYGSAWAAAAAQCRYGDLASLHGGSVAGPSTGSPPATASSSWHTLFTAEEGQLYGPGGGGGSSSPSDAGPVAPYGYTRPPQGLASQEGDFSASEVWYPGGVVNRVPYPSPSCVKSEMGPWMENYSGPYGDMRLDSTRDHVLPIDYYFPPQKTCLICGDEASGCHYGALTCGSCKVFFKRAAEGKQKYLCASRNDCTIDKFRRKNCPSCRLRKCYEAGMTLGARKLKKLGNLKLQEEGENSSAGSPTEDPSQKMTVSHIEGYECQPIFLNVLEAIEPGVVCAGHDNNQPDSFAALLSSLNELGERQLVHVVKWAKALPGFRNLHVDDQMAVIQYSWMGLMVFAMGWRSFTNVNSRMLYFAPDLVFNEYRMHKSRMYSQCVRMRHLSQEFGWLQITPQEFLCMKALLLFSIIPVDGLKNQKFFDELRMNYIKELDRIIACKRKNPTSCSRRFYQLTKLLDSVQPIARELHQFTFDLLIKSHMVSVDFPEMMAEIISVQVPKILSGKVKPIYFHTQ
Excerpt: The activity of compounds of the present invention as AR agonists was investigated in an immature male rat model, a recognized test of anabolic effects in muscle and sustaining effects in sex organs for a given compound, as described in L. G. Hershberger et al., Proc. Soc. […] Biol. Med., 83, 175 (1953); B. L. Beyler et al, “Methods for evaluating anabolic and catabolic agents in laboratory animals”, J. Amer. Med. Women's Ass., 23, 708 (1968); H. Fukuda et al., “Investigations of the levator ani muscle as an anabolic steroid assay”, Nago Dai. […] Nem. 14, 84 (1966) the disclosures of which are herein incorporated by reference.
The basis of this assay lies in the well-defined action of androgenic agents on the maintenance and growth of muscle tissues and sexual accessory organs in animals and man. […] J. Anat. […] Ital. Biol. Sper. […] II. […] Ital. Biol. Sper. 42, 1600 (1966); A. Boris et al., Steroids 15, 61 (1970). As described above, the effects of androgens on maintenance of male sexual accessory organs, such as the prostate and seminal vesicles, is well described. Castration results in rapid involution and atrophy of the prostate and seminal vesicles. This effect can be reversed by exogenous addition of androgens. […]

[2] = target: wild type AR; settings: read-out: Kd for [3H]-DHT; MDA 453 cells, Scatchard analysis
Protocol: For the whole-cell binding assay, human LNCaP cells (T877A mutant AR) or MDA 453 (wild type AR) in 96-well microtiter plates containing RPMI 1640 or DMEM supplemented with 10% charcoal stripped CA-FBS (Cocaleco Biologicals) respectively, were incubated at 37° C. to remove any endogenous ligand that might be complexed with the receptor in the cells.
For the saturation analysis, the difference between the total binding and the non-specific binding, was defined as specific binding. […] See e.g. D. Rodbard, Mathematics and statistics of ligand assays: an illustrated guide: In: J. Langon and J. J. Clapp, eds., Ligand Assay, Masson Publishing U.S.A., Inc., New York, pp. 45-99, (1981), the disclosure of which is herein incorporated by reference.
Two replicates were used for each sample.

Row | Molecule | potency relative to free T ([1]; TP versus free T) | EC50 (increase in organ weight) ([1]; immature castrated rats) | Kd [2]
1 | CCC(=O)O[C@H]1CC[C@H]2[C@@H]3CCC4=CC(=O)CC[C@]4(C)[C@H]3CC[C@]12C [TP, testosterone propionate] | 10-30 fold | ~0.03 mg | –
2 | tritiated dihydrotestosterone [[^3H]-DHT] | – | – | 0.7 nM
